Measurements from ChEMBL document CHEMBL2417551, “Structure-guided design of novel thiazolidine inhibitors of O-acetyl serine sulfhydrylase from Mycobacterium tuberculosis” (J Med Chem, 2013).

What follows are compounds tested against O-acetylserine sulfhydrylase (Mycobacterium tuberculosis) (UniProt P9WP55). Conditions: at 500 nM.
Description: Inhibition of Mycobacterium tuberculosis N-terminal His-6-tagged recombinant CysK1 expressed in Escherichia coli BL21 (DE3) at 500 nM after 20 mins by spectrophotometric analysis

Row | SMILES | inhibition
1 | CCN1C(=O)/C(=C/c2ccc(O)cc2)S/C1=N\c1cccc(C(C)=O)c1 | 3.4%
2 | CCN1C(=O)/C(=C/c2ccc(OC)cc2)S/C1=N\c1cccc(C(=O)O)c1 | 56.2%
3 | Cc1ccc(/C=C2\S/C(=N\c3cccc(C(=O)O)c3)N(C)C2=O)cc1 | 45.6%
4 | CC(C)N1C(=O)/C(=C/c2ccc(OCC(=O)O)cc2)S/C1=N\c1cccc(C(=O)O)c1 | 12.6%
5 | CCN1C(=O)/C(=C/c2ccccc2O)S/C1=N\c1cccc(C(=O)O)c1 | 53.2%
6 | CCN1C(=O)/C(=C/c2ccc(O)cc2)S/C1=N\c1cccc(C(=O)O)c1 | 90.2%
7 | CCCN1C(=O)/C(=C/c2ccc(OCC(=O)OC)cc2)S/C1=N\c1cccc(C(C)=O)c1 | 0%
8 | C=CCN1C(=O)/C(=C/c2ccc(OCC(=O)OC)cc2)S/C1=N\c1cccc(C(=O)O)c1 | 19.9%
9 | CCN1C(=O)/C(=C/c2cccc(C(F)(F)F)c2)S/C1=N\c1cccc(C(=O)O)c1 | 26%
10 | CC(C)c1ccc(/C=C2\S/C(=N\c3cccc(C(=O)O)c3)N(C)C2=O)cc1 | 54%
11 | CCN1C(=O)/C(=C/c2ccccc2OC)S/C1=N\c1cccc(C(=O)O)c1 | 59.5%
12 | CN1C(=O)/C(=C/c2ccccc2Br)S/C1=N\c1cccc(C(=O)O)c1 | 50.5%
13 | CCN1C(=O)/C(=C/c2ccc([N+](=O)[O-])cc2)S/C1=N\c1cccc(C(=O)O)c1 | 32.7%
14 | CN1C(=O)/C(=C/c2ccc(OCc3ccccc3)cc2)S/C1=N\c1cccc(C(=O)O)c1 | 91.5%
15 | CCN1C(=O)/C(=C/c2ccc(C)cc2)S/C1=N\c1cccc(C(=O)O)c1 | 41.7%
16 | CCN1C(=O)/C(=C/c2ccc(Cl)c(Cl)c2)S/C1=N\c1cccc(C(=O)O)c1 | 37.8%
17 | CN1C(=O)/C(=C/c2ccccc2)S/C1=N\c1cccc(C(=O)O)c1 | 52.2%
18 | CCN1C(=O)/C(=C/c2ccc(OCC(=O)O)cc2)S/C1=N\c1cccc(C(=O)O)c1 | 36.9%
19 | CCN1C(=O)/C(=C/c2ccc(O)c(OC)c2)S/C1=N\c1cccc(C(=O)O)c1 | 75.6%
20 | CN1C(=O)/C(=C/c2c[nH]c3ccccc23)S/C1=N\c1cccc(C(=O)O)c1 | 73.5%
21 | COC(=O)COc1ccccc1/C=C1\S/C(=N\c2cccc(C(=O)O)c2)N(C(C)C)C1=O | 55.7%
22 | C=CCN1C(=O)/C(=C/c2ccccc2OCC(=O)O)S/C1=N\c1cccc(C(=O)O)c1 | 25.4%
23 | CN1C(=O)/C(=C/c2ccccc2Cl)S/C1=N\c1cccc(C(=O)O)c1 | 54.6%

Row | SMILES | inhibition
24 | COc1cc(/C=C2\S/C(=N\c3cccc(C(=O)O)c3)N(C)C2=O)cc(OC)c1OC | 89.4%
25 | CCN1C(=O)/C(=C/c2ccc[nH]2)S/C1=N\c1cccc(C(=O)O)c1 | 32.5%
26 | CCN1C(=O)/C(=C/c2ccco2)S/C1=N\c1cccc(C(=O)O)c1 | 29.2%
27 | CCN1C(=O)/C(=C/c2ccccc2OCc2ccccc2)S/C1=N\c1cccc(C(=O)O)c1 | 59.3%
28 | CN1C(=O)/C(=C/c2ccccc2OCc2ccccc2)S/C1=N\c1cccc(C(=O)O)c1 | 44.8%
29 | CCN1C(=O)/C(=C/c2ccc(OCc3ccccc3)cc2)S/C1=N\c1cccc(C(=O)O)c1 | 81.1%
30 | CCCN1C(=O)/C(=C/c2ccc(O)cc2)S/C1=N\c1cccc(C(=O)O)c1 | 95.1%
31 | CCN1C(=O)/C(=C/c2cnccc2C(F)(F)F)S/C1=N\c1cccc(C(=O)O)c1 | 46%
32 | CCN1C(=O)/C(=C/c2ccc(N(C)C)cc2)S/C1=N\c1cccc(C(=O)O)c1 | 52.4%
33 | CCCCN1C(=O)/C(=C/c2ccc(OCC(=O)OC)cc2)S/C1=N\c1cccc(C(C)=O)c1 | 0%
34 | C=CCN1C(=O)/C(=C/c2ccc(OCC(=O)OC)cc2)S/C1=N\c1cccc(C(C)=O)c1 | 10.9%
35 | CCN1C(=O)/C(=C/c2ccccc2OCC(=O)OC)S/C1=N\c1cccc(C(=O)O)c1 | 31%
36 | CCN1C(=O)/C(=C/c2ccc(Cl)cc2)S/C1=N\c1cccc(C(=O)O)c1 | 54.4%
37 | CCN1C(=O)/C(=C/c2ccc(C(F)(F)F)cc2)S/C1=N\c1cccc(C(=O)O)c1 | 50.8%
38 | CCN1C(=O)/C(=C/c2ccc(OCC(=O)OC)cc2)S/C1=N\c1cccc(C(=O)O)c1 | 9.9%
39 | CCCCN1C(=O)/C(=C/c2ccc(OCC(=O)OC)cc2)S/C1=N\c1cccc(C(=O)O)c1 | 16.4%
40 | C=CCN1C(=O)/C(=C/c2ccc(O)cc2)S/C1=N\c1cccc(C(=O)O)c1 | 92.3%
41 | CN1C(=O)/C(=C/c2cnccc2C(F)(F)F)S/C1=N\c1cccc(C(=O)O)c1 | 34.4%
42 | CCCCN1C(=O)/C(=C/c2ccc(O)cc2)S/C1=N\c1cccc(C(=O)O)c1 | 78.5%
43 | CC(C)N1C(=O)/C(=C/c2ccc(O)cc2)S/C1=N\c1cccc(C(=O)O)c1 | 90.3%
44 | COc1ccccc1/C=C1\S/C(=N\c2cccc(C(=O)O)c2)N(C)C1=O | 96.9%
45 | CCN1C(=O)/C(=C/c2ccc(OCC(=O)OC)cc2)S/C1=N\c1cccc(C(C)=O)c1 | 8.2%
46 | CCCN1C(=O)/C(=C/c2ccc(OCC(=O)OC)cc2)S/C1=N\c1cccc(C(=O)O)c1 | 0%

Row | SMILES | inhibition
47 | CN1C(=O)/C(=C/c2ccc(C(F)(F)F)cc2)S/C1=N\c1cccc(C(=O)O)c1 | 72.1%
48 | C=CCN1C(=O)/C(=C/c2ccc(OCC(=O)O)cc2)S/C1=N\c1cccc(C(C)=O)c1 | 0%
49 | CN1C(=O)/C(=C/c2ccc(Cl)c(Cl)c2)S/C1=N\c1cccc(C(=O)O)c1 | 60%
50 | CN1C(=O)/C(=C/c2cccc(O)c2)S/C1=N\c1cccc(C(=O)O)c1 | 56.8%
51 | CCN1C(=O)/C(=C/c2cccc(O)c2)S/C1=N\c1cccc(C(=O)O)c1 | 52.8%
52 | CCN1C(=O)/C(=C/c2cccc(C)c2)S/C1=N\c1cccc(C(=O)O)c1 | 38.5%
53 | C=CCN1C(=O)/C(=C/c2ccc(OCC(=O)O)cc2)S/C1=N\c1cccc(C(=O)O)c1 | 1.4%
54 | CCCCN1C(=O)/C(=C/c2ccc(OCC(=O)O)cc2)S/C1=N\c1cccc(C(=O)O)c1 | 0%
55 | CCN1C(=O)/C(=C/c2ccccn2)S/C1=N\c1cccc(C(=O)O)c1 | 38.7%
56 | CCN1C(=O)/C(=C/c2ccccc2Cl)S/C1=N\c1cccc(C(=O)O)c1 | 43.3%
57 | CCN1C(=O)/C(=C/c2ccccc2OCC(=O)O)S/C1=N\c1cccc(C(=O)O)c1 | 15.9%
58 | CN1C(=O)/C(=C/c2ccccc2O)S/C1=N\c1cccc(C(=O)O)c1 | 62.7%
59 | CCN1C(=O)/C(=C/c2ccccc2)S/C1=N\c1cccc(C(=O)O)c1 | 39.3%
60 | Cc1ccccc1/C=C1\S/C(=N\c2cccc(C(=O)O)c2)N(C)C1=O | 57.4%
61 | CCN1C(=O)/C(=C/c2ccc(F)cc2)S/C1=N\c1cccc(C(=O)O)c1 | 68.3%
62 | CC(C)N1C(=O)/C(=C/c2ccccc2OCC(=O)O)S/C1=N\c1cccc(C(=O)O)c1 | 18.5%
63 | CCCN1C(=O)/C(=C/c2ccc(OCC(=O)O)cc2)S/C1=N\c1cccc(C(C)=O)c1 | 0%
64 | CCN1C(=O)/C(=C/c2ccccc2Br)S/C1=N\c1cccc(C(=O)O)c1 | 54.1%
65 | CCN1C(=O)/C(=C/c2ccc(OC)c(OC)c2)S/C1=N\c1cccc(C(=O)O)c1 | 90.9%
66 | CN1C(=O)/C(=C/c2ccc(Cl)cc2)S/C1=N\c1cccc(C(=O)O)c1 | 59.7%
67 | CCN1C(=O)/C(=C/c2ccc(OCC(=O)O)cc2)S/C1=N\c1cccc(C(C)=O)c1 | 10%
68 | CCCCN1C(=O)/C(=C/c2ccc(OCC(=O)O)cc2)S/C1=N\c1cccc(C(C)=O)c1 | 24.1%
69 | COC(=O)COc1ccc(/C=C2\S/C(=N\c3cccc(C(=O)O)c3)N(C(C)C)C2=O)cc1 | 0%

Row | SMILES | inhibition
70 | CC(=O)c1cccc(/N=C2\S/C(=C\c3ccc(OCC(=O)O)cc3)C(=O)N2C(C)C)c1 | 10.2%
71 | CCCCN1C(=O)/C(=C/c2ccc(O)cc2)S/C1=N\c1cccc(C(C)=O)c1 | 25.1%
72 | CCN1C(=O)/C(=C/c2ccc(C(C)C)cc2)S/C1=N\c1cccc(C(=O)O)c1 | 49.6%
73 | CCN1C(=O)/C(=C/c2c[nH]c3ccccc23)S/C1=N\c1cccc(C(=O)O)c1 | 61.9%
74 | CCCN1C(=O)/C(=C/c2ccc(O)cc2)S/C1=N\c1cccc(C(C)=O)c1 | 10.7%
75 | CCN1C(=O)/C(=C/c2ccc(Cl)cc2Cl)S/C1=N\c1cccc(C(=O)O)c1 | 45.4%
76 | CN1C(=O)/C(=C/c2ccc(Br)cc2)S/C1=N\c1cccc(C(=O)O)c1 | 70.5%
77 | COC(=O)COc1ccc(/C=C2\S/C(=N\c3cccc(C(C)=O)c3)N(C(C)C)C2=O)cc1 | 7.4%
78 | CN1C(=O)/C(=C/c2ccc([N+](=O)[O-])cc2)S/C1=N\c1cccc(C(=O)O)c1 | 51.8%
79 | CCN1C(=O)/C(=C/c2cc(OC)c(OC)c(OC)c2)S/C1=N\c1cccc(C(=O)O)c1 | 37.4%
80 | CCN1C(=O)/C(=C/c2ccccc2C)S/C1=N\c1cccc(C(=O)O)c1 | 47%
81 | Cc1cccc(/C=C2\S/C(=N\c3cccc(C(=O)O)c3)N(C)C2=O)c1 | 49.6%
82 | CCCN1C(=O)/C(=C/c2ccc(OCC(=O)O)cc2)S/C1=N\c1cccc(C(=O)O)c1 | 0%
83 | COC(=O)COc1ccccc1/C=C1\S/C(=N\c2cccc(C(=O)O)c2)N(C)C1=O | 56.3%
84 | CN1C(=O)/C(=C/c2ccccn2)S/C1=N\c1cccc(C(=O)O)c1 | 64.4%
85 | CC(=O)c1cccc(/N=C2\S/C(=C\c3ccc(O)cc3)C(=O)N2C(C)C)c1 | 8.2%
86 | C=CCN1C(=O)/C(=C/c2ccc(O)cc2)S/C1=N\c1cccc(C(C)=O)c1 | 28.9%
87 | C=CCN1C(=O)/C(=C/c2ccccc2OCC(=O)OC)S/C1=N\c1cccc(C(=O)O)c1 | 38.6%
88 | CN1C(=O)/C(=C/c2cccc(C(F)(F)F)c2)S/C1=N\c1cccc(C(=O)O)c1 | 26.1%
89 | CCN1C(=O)/C(=C/c2ccc(Br)cc2)S/C1=N\c1cccc(C(=O)O)c1 | 60.9%
90 | CN1C(=O)/C(=C/c2ccc[nH]2)S/C1=N\c1cccc(C(=O)O)c1 | 58.4%
91 | CN1C(=O)/C(=C/c2ccco2)S/C1=N\c1cccc(C(=O)O)c1 | 30.1%
92 | CN1C(=O)/C(=C/c2ccc(Cl)cc2Cl)S/C1=N\c1cccc(C(=O)O)c1 | 57.4%

These compounds were tested against O-acetylserine sulfhydrylase (Mycobacterium tuberculosis, UniProt P9WP55). Conditions: not given.

Row | SMILES | IC50
93 | CCN1C(=O)/C(=C/c2ccc(O)cc2)S/C1=N\c1cccc(C(=O)O)c1 | 101 nM
94 | CN1C(=O)/C(=C/c2ccc(OCc3ccccc3)cc2)S/C1=N\c1cccc(C(=O)O)c1 | 25.6 nM
95 | COc1cc(/C=C2\S/C(=N\c3cccc(C(=O)O)c3)N(C)C2=O)cc(OC)c1OC | 69.9 nM
96 | CCCN1C(=O)/C(=C/c2ccc(O)cc2)S/C1=N\c1cccc(C(=O)O)c1 | 95.1 nM
97 | C=CCN1C(=O)/C(=C/c2ccc(O)cc2)S/C1=N\c1cccc(C(=O)O)c1 | 110 nM
98 | CC(C)N1C(=O)/C(=C/c2ccc(O)cc2)S/C1=N\c1cccc(C(=O)O)c1 | 141 nM
99 | COc1ccccc1/C=C1\S/C(=N\c2cccc(C(=O)O)c2)N(C)C1=O | 160 nM
100 | CCN1C(=O)/C(=C/c2ccc(OC)c(OC)c2)S/C1=N\c1cccc(C(=O)O)c1 | 56 nM
